Data on 13 molecules can be found in patent US5494933A, “Treatment” (Beecham-Wuelfing GmbH & Co. KG, priority 1986, dated 1996).

The subject of one assay is coronary spasm. Nature of the assay: Vasopressin test in anaesthetized rats (coronary vasodilating activity, coronary spasm). As to conditions: 0.6 g/kg i.d., vasopressin (Lysopressin) 1 I.U./kg i.v. It counts as in vivo, rat. As for the experimental part:
1. Coronary Vasodilating activity
a) Vasopressin test in anaesthetized rats
Vasopressin (Lysopressin: 1 I.U./kg) was administered intravenously in order to provoke coronary spasm (ST-segment elevation in the ECG).
The ability of test compounds to reduce coronary spasm is taken as a measure of their anti-anginal potential in spasm-induced angina pectoris. (Ref. Drug.Res. 33(11), 8,1117-1121 (1983)).

The test system of assay [1] is heart rate, systolic left ventricular pressure, left ventricular dp/dt max and mean arterial blood pressure. Nature of the assay: Haemodynamic profile in anaesthetized rats. It counts as in vivo, rat. As to conditions: for % effect of Dhr 20 on dp/dtmax: left ventricular. The text has this: 2. Haemodynamic profile in anaesthetized rats.
The effect of compounds of the invention on heart rate, systolic left ventricular pressure, left ventricular dp/dt max and mean arterial blood pressure was investigated so as to obtain information on the anti-anginal potential of these compounds, by reducing the oxygen demand of the ischaemic heart.
**LVP = systolic left ventricular pressure
***BP = mean arterial blood pressure
^a = i.d. administration

Another assay addresses T1, coronary artery (Sus scrofa, UniProt A0A8W4FNC0).
T1 construct: Coronary artery spirals were prepared; from tissue; host or cells: pig coronary artery spirals
The experiment in a line: Pig isolated coronary artery, Ca++-antagonistic activity. As for the experimental part: b) Pig isolated coronary artery
Coronary artery spirals were prepared and in lengths from 1.5 to 2 cm were incubated at 32.5° in Ca^++ -free Krebs-Henseleit solution containing tris buffer and 60 mM KCl. Ca^++ in concentrations ranging from 0.1 mM-7 mM was given every 10 min to produce a control dose-responsecurve. Following a wash out circle using EDTA, either placebo or drug was administered, and an equilibration time of 30 minutes allowed before the second dose-response curve was made. Dose-ratios were calculated at ED50 -levels, from these the log KB was calculated.

The mark [2] stands for this setting: anaesthetized rat, i.v., at Dhr 20.

T1 sequence (A0A8W4FNC0 1-2067): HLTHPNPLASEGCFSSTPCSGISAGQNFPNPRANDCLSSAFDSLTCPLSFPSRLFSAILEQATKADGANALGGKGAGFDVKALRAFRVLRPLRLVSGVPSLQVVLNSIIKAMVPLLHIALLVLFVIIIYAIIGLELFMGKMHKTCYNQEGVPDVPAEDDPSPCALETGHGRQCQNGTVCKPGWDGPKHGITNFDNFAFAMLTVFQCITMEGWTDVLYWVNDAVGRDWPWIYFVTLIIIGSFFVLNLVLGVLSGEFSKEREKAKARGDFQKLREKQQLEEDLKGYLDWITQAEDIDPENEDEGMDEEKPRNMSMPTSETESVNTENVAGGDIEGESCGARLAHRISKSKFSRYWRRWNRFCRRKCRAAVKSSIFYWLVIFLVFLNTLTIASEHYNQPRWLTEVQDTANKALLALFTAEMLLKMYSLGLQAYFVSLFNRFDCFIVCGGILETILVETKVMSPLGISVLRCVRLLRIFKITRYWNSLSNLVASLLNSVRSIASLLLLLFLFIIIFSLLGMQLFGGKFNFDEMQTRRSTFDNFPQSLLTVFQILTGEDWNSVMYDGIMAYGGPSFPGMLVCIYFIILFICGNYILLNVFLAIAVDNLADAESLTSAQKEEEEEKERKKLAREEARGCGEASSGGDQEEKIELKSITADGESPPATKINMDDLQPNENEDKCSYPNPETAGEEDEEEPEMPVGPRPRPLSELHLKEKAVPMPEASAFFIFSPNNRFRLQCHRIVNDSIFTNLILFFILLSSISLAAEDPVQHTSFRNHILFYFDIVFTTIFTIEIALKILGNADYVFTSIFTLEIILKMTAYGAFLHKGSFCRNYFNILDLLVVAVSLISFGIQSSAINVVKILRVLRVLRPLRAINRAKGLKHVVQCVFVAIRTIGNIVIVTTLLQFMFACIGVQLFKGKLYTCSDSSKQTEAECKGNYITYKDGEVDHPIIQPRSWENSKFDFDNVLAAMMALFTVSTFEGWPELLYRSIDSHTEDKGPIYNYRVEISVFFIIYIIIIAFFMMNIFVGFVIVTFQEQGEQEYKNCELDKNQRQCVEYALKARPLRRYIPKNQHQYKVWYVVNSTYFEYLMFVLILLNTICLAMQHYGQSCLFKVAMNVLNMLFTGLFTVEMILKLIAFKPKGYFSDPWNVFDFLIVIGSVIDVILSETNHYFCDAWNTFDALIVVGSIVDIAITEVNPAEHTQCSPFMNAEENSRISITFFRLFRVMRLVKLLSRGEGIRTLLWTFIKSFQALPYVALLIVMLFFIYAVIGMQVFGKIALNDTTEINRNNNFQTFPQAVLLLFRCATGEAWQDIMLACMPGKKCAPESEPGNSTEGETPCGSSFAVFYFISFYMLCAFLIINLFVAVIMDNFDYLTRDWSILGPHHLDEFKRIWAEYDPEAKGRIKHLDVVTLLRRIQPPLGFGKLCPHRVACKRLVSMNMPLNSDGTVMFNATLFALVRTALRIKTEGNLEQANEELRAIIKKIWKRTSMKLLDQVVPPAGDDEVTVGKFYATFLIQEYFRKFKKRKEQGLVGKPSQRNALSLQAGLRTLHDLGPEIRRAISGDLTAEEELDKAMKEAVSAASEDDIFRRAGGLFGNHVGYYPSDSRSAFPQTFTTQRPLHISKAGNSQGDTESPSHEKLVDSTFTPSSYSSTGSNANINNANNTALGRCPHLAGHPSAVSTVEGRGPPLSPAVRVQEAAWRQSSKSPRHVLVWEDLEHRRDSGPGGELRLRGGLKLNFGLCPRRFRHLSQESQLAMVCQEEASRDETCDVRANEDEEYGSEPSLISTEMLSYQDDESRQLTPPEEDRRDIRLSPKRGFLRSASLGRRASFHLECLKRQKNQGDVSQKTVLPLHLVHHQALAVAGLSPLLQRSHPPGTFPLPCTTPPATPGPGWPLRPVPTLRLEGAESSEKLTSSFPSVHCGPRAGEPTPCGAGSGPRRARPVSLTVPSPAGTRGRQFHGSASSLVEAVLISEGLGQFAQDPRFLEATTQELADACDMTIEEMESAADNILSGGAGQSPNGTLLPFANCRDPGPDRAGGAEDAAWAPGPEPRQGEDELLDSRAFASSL

Take `COc1ccc(CCN(C)CCCN(Cc2ccccc2[N+](=O)[O-])c2ccc(OC)c(OC)c2)cc1OC` [Example E1, (N-[3,4-Dimethoxyphenyl]-N-3-[N'-2-(3,4-dimethoxyphenyl)-ethyl-N'-methylamino]-propyl)-(2-nitro)-benzylamine]: the “activity against coronary spasm (ST-segment elevation in the ECG)” value in the assay on coronary spasm was “active against coronary spasm”. The “i.v. duration of action on heart rate” value in assay [1] (anaesthetized rat, i.v.) was found to be 10 min. Also, in assay [1] (setting [2]), the “% effect of Dhr 20 on dp/dtmax” value is listed as -3%.
Turning to `COc1ccc(CCN(C)CCCN(Cc2ccccc2)c2ccc(OC)c(OC)c2)cc1OC` [Example E4, (N-[3,4-Dimethoxyphenyl]-N-3-[N'-2-(3,4-dimethoxyphenyl)-ethyl-N'-methylamino]-propyl)-benzylamine], the “i.v. duration of action on heart rate” value in assay [1] (anaesthetized rat, i.v.) stood at 10 min. The “% effect of Dhr 20 on dp/dtmax” value in assay [1] (setting [2]) is reported as -12%. The antagonist dissociation constant (Kb) on coronary artery (pig coronary artery spirals, 60 mM KCl, Ca++ 0.1 mM-7 mM, 30 min equilibration, dose-ratios at ED50 levels) was 1.41 µM. The “Ca++-antagonistic activity in coronary artery in vitro” value on coronary artery (pig coronary artery, from log KB) is “moderate to medium”.
`COc1ccc(CCN(C)CCCN(Cc2ccc([N+](=O)[O-])cc2)c2ccc(OC)c(OC)c2)cc1OC` [Example E6, (N-[3,4-Dimethoxyphenyl]-N-3-[N'-2-(3,4-dimethoxyphenyl)-ethyl-N'-methylamino]-propyl)-(4-nitro)-benzylamine]: the “i.v. duration of action on heart rate” value in assay [1] (anaesthetized rat, i.v.) is reported as 60 min. For the same molecule, in assay [1] (setting [2]), the “% effect of Dhr 20 on dp/dtmax” value is recorded as -5%.
In the case of `CCCCC(=O)N(CCCN(C)CCc1ccc(OC)c(OC)c1)c1ccc(OC)c(OC)c1` [Example E12, (N-[3,4-Dimethoxyphenyl]-N-3-[N'-2-(3,4-dimethoxyphenyl)-ethyl-N'-methylamino]-propyl)-pentanoic acid amide], in assay [1] (anaesthetized rat, i.v.), the “i.v. duration of action on heart rate” value is listed as 10 min. For the same molecule, the “% effect of Dhr 20 on dp/dtmax” value in assay [1] (setting [2]) is -6%.
Consider `COc1ccc(CCN(C)CCCN(C(=O)CCc2ccccc2)c2ccc(OC)c(OC)c2)cc1OC` [Example E15, (N-[3,4-Dimethoxyphenyl]-N-3-[N'-2-(3,4-dimethoxyphenyl)-ethyl-N'-methylamino]-propyl)-(3-phenyl)propanoic acid amide], for which the “i.v. duration of action on heart rate” value in assay [1] (anaesthetized rat, i.v.) was determined as 10 min. Moreover, the “% effect of Dhr 20 on dp/dtmax” value in assay [1] (setting [2]) is on record as -7%.
As for `CCCCOC(=O)N(CCCN(C)CCc1ccc(OC)c(OC)c1)c1ccc(OC)c(OC)c1` [Example E24, (N-[3,4-Dimethoxyphenyl]-N-3-[N'-2-(3,4-dimethoxyphenyl)-ethyl-N'methylamino]-propyl)-n-butyl-urethane], the “i.v. duration of action on heart rate” value in assay [1] (anaesthetized rat, i.v.) came out at 10 min. Besides, in assay [1] (setting [2]), the “% effect of Dhr 20 on dp/dtmax” value was -8%.
In the case of `COc1ccc(CCN(C)CCCN(C(=O)Oc2ccccc2)c2ccc(OC)c(OC)c2)cc1OC` [Example E25, (N-[3,4-Dimethoxyphenyl]-N-3-[N'-2-(3,4-dimethoxyphenyl)-ethyl-N'-methylamino]-propyl)-phenyl-urethane], in assay [1] (anaesthetized rat, i.v.), the “Dhr 20 (i.v. dose which reduces heart rate by ca. 20%)” value came to 0.8 and the “i.v. duration of action on heart rate” value worked out at 10 min. For the same molecule, in assay [1] (setting [2]), the “% effect of Dhr 20 on BP (mean arterial blood pressure)” value (from here on “% effect of Dhr 20 on BP”) was -14%, the “% effect of Dhr 20 on LVP (systolic left ventricular pressure)” value (shortened to “% effect of Dhr 20 on LVP”) was -10% and the “% effect of Dhr 20 on dp/dtmax” value is -2%.
As for `CCCNC(=O)N(CCCN(C)CCc1ccc(OC)c(OC)c1)c1ccc(OC)c(OC)c1` [Example E27, (N-[3,4-Dimethoxyphenyl]-N-3-[N'-2-(3,4-dimethoxyphenyl)-ethyl-N'-methylamino]-propyl)-N"-n-propyl-urea], the “i.v. duration of action on heart rate” value in assay [1] (anaesthetized rat, i.v.) lay in the range of 5 to 10 min. Moreover, the “% effect of Dhr 20 on dp/dtmax” value in assay [1] (setting [2]) is given as -1%.
The matching figures for `COc1ccc(CCN(C)CCCN(C(=O)NCc2ccccc2)c2ccc(OC)c(OC)c2)cc1OC` [Example E30, (N-[3,4-Dimethoxyphenyl]-N-3-[N'-2-(3,4-dimethoxyphenyl)-ethyl-N'-methylamino]-propyl)-N"-benzylurea]: 10 min and -20%.
The matching figures for `COc1ccc(CCN(C)CCN(C(=O)NC(C)c2ccccc2)c2ccc(OC)c(OC)c2)cc1OC` (stereo not shown) [Example E32]: 10 min and -3%.
For `CCCCCN(CCCN(C)CCc1ccc(OC)c(OC)c1)c1ccc(OC)c(OC)c1` [Example E34, (N-[3,4-Dimethoxyphenyl]-N-3-[N'-2-(3,4-dimethoxyphenyl)-ethyl-N'-methylamino]-propyl)-n-pentylamine], the “i.v. duration of action on heart rate” value in assay [1] (anaesthetized rat, i.v.) lay in the range of 5 to 10 min. For the same molecule, the “% effect of Dhr 20 on dp/dtmax” value in assay [1] (setting [2]) is listed as -10%.
Regarding `COc1ccc(CCN(C)CCCN(c2ccc(OC)c(OC)c2)c2ncc([N+](=O)[O-])cc2[N+](=O)[O-])cc1OC` [Example E44, (N-[3,4-Dimethoxyphenyl]-N-3-[N'-2-(3,4-dimethoxyphenyl)-ethyl-N'-methyl-amino]-propyl)-3,5-dinitro-2-amino-pyridine], in assay [1] (anaesthetized rat, i.v.), the “Dhr 20 (i.v. dose which reduces heart rate by ca. 20%)” value came to 3.2 and the “i.v. duration of action on heart rate” value amounted to 10 min. Moreover, in assay [1] (setting [2]), the “% effect of Dhr 20 on BP” value was -10%, the “% effect of Dhr 20 on LVP” value is given as -6% and the “% effect of Dhr 20 on dp/dtmax” value is given as -8%.
As to `COc1ccc(CCN(C)CCCN(C(=O)c2ccc([N+](=O)[O-])cc2)c2ccc(OC)c(OC)c2)cc1OC` [Example E50, (N-[3,4-Dimethoxyphenyl]-N-3-[N'-2-(3,4-dimethoxyphenyl)-ethyl-N'-methyl-amino]-propyl)-4-nitrobenzamide], in assay [1] (rat, in vivo), the “% effect of Dhr 20 on BP” value is -6% and the “duration of action on heart rate” value is over 90 min. For the same molecule, in assay [1] (rat, in vivo, iv), the “% effect of Dhr 20 on BP” value is on record as -1% and the “% effect of Dhr 20 on LVP” value is given as -1%.

As a reminder, the Kb is the equilibrium dissociation constant of an antagonist, usually derived from a functional assay.
